Data set [1] deals with T1, IRAK3 (Homo sapiens, UniProt Q9Y616).
T1 construct: pseudokinase domain, residues 145–454
T1 sequence (Q9Y616 145-454): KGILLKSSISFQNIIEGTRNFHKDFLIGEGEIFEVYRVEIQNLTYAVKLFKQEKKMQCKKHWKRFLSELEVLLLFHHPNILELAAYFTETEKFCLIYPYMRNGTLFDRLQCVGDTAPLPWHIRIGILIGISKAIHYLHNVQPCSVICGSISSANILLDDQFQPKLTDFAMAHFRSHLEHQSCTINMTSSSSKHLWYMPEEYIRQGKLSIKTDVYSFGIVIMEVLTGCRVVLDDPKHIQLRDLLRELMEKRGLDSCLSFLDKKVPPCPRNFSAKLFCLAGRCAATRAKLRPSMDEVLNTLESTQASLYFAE
Description: thermal shift assay dose response with isothermal analysis at […]°C. It counts as binding.

For data set [2], the target named is T2, IRAK2 (Homo sapiens, UniProt O43187).
T2 construct: pseudokinase domain, residues 192-507
T2 sequence (O43187 192-507): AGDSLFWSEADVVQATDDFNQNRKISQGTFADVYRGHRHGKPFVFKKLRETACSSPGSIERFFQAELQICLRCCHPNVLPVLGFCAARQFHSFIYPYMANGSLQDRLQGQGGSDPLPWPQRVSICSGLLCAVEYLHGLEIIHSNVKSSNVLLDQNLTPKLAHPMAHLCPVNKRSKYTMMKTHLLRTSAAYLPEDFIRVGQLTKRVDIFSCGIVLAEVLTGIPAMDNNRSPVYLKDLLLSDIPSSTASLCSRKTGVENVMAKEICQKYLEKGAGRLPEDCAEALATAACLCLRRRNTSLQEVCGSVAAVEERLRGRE
The data set is described as above. The format is binding.

Data set [3] deals with the molecule itself. Description: crystal structure; IRAK3_(145-454) at 7-10 mg/mL, 0.1 M citric acid pH 5.0, 1.62 M ammonium sulfate, 20°C, hanging drop; 2.9 Å; three molecules in the asymmetric unit.
Data set [4] concerns the molecule itself. The data set can be described thus: SEC; analytical gel filtration, Superdex Increase 3.2/300, 20 mM HEPES pH 7.5, 200 mM NaCl, 10% glycerol, 1 mM DTT; 25 μl loaded at 1-5 mg/ml; fractions on SDS-PAGE; monomer to dimer.

As for `Nc1ncnc2c1ncn2[C@@H]1O[C@H](COP(=O)(O)OP(=O)(O)OP(=O)(O)O)[C@@H](O)[C@H]1O` [ATP], the Kd is roughly 196 µM in data set [1] and 9.8 ± 3.8 µM in data set [2].

B1: IRAK3 pseudokinase domain (residues 145-454), wild type (domain or fragment, human, UniProt Q9Y616 145-454, looked up)
chain: KGILLKSSISFQNIIEGTRNFHKDFLIGEGEIFEVYRVEIQNLTYAVKLFKQEKKMQCKKHWKRFLSELEVLLLFHHPNILELAAYFTETEKFCLIYPYMRNGTLFDRLQCVGDTAPLPWHIRIGILIGISKAIHYLHNVQPCSVICGSISSANILLDDQFQPKLTDFAMAHFRSHLEHQSCTINMTSSSSKHLWYMPEEYIRQGKLSIKTDVYSFGIVIMEVLTGCRVVLDDPKHIQLRDLLRELMEKRGLDSCLSFLDKKVPPCPRNFSAKLFCLAGRCAATRAKLRPSMDEVLNTLESTQASLYFAE
notes: Interleukin-1 receptor associated kinase 3 (IRAK3), human, pseudokinase domain, residues 145-454; Construct 6His-TEV-GST-3C-IRAK3 145-454; the 6His-GST tag was cut off with PreScission protease; also called IRAK3_(145-454); IRAK3-PK; source: Sf21 insect cells (baculovirus), purified (Ni-NTA, GSH sepharose, PreScission cleavage, gel filtration); not shown: His6, N-terminal, cleaved; GST, …
B1: the “stoichiometry N” value in data set [3] is 2.

B2: IRAK3 pseudokinase domain (residues 145-454) E214L (domain or fragment, human, UniProt Q9Y616 145-454, looked up)
chain: KGILLKSSISFQNIIEGTRNFHKDFLIGEGEIFEVYRVEIQNLTYAVKLFKQEKKMQCKKHWKRFLSELLVLLLFHHPNILELAAYFTETEKFCLIYPYMRNGTLFDRLQCVGDTAPLPWHIRIGILIGISKAIHYLHNVQPCSVICGSISSANILLDDQFQPKLTDFAMAHFRSHLEHQSCTINMTSSSSKHLWYMPEEYIRQGKLSIKTDVYSFGIVIMEVLTGCRVVLDDPKHIQLRDLLRELMEKRGLDSCLSFLDKKVPPCPRNFSAKLFCLAGRCAATRAKLRPSMDEVLNTLESTQASLYFAE
notes: IRAK3, human, pseudokinase domain, residues 145-454, with E214L; Construct 6His-TEV-GST-3C-IRAK3 145-454 E214L; PDB 6RUU holds the wild-type parent; also called IRAK3_(145-454) E214L; source: Sf21 insect cells (baculovirus), purified (Ni-NTA, GSH sepharose, PreScission cleavage, gel filtration); not shown: His6, N-terminal, cleaved; GST, N-terminal, cleaved
For the molecule B2, the “stoichiometry N” value in data set [4] came to 2.
